Here are results for two molecules from US20090156473A1, “PHARMACEUTICAL COMPOSITION FOR THE TREATMENT OF VIRAL INFECTIONS AND/OR TUMOR DISEASES BY INHIBITING PROTEIN FOLDING AND PROTEIN BREAKDOWN” (Virologik GmbH, priority 2006, published 2009).

One assay relates to X4-trophic HI viruses. Briefly: HLAC model (human tonsil cells) infected with X4-trophic HI viruses, RT assay of supernatants. Format: cell-based, HIV-1. The conditions noted are these: for virus replication of X4-trophic HI viruses (RT data): tonsil A; for X4-trophic HIV replication (RT data): tonsil B. The procedure:
Human tonsils were macerated and transferred into 96-well plates. After one day of incubation, the cells were infected with X4-trophic HI viruses, mixed with the corresponding inhibitors and washed on the following day. These and also the subsequent steps are described in detail under Example 4c-d. At each kinetic point, 150 μL of medium was removed and stored at −80° C. until measurement at RT. The medium that was again added contained the inhibitor concentrations necessary for the special preparation.
After 15 days, the proportion of functional HI viruses formed was determined by means of RT assays (see Example 4e) of the stored supernatants.
Tonsil cells were cultivated in RPMI 1640 with 15% (V/V) fetal calf serum, 2 mM L-glutamine, 100 U/mL penicillin, 100 μg/mL streptomycin, 2.5 μg/mL Fungizone, 1 mM sodium pyrovate, 1% MEM non-essential amino acid solution and 50 μg/mL gentanamycin (“tonsil medium”).
To produce virus preparations, plasmid DNA of molecular HIV-1 DNA was transfected into HeLa cells using the calcium phosphate precipitation method. For this purpose, confluent cultures of HeLa cells (5×10^6 cells) were incubated with 25 μg of plasmid DNA in calcium phosphate crystals, produced according to a method of Graham and van der Eb (1973), then subjected to glycerol shock according to Gorman et al. (1982). To obtain concentrated virus preparations, the cell culture supernatants were harvested two days after transfection. Thereafter the cells as well as their constituents were separated by centrifugation (1000 g, 5 minutes, 4° C.) and filtration (0.45 μm pore size). Virus particles were pelleted by ultracentrifugation (Beckman SW55 rotor, 1.5 hours, 35,000 rpm, 10° C.) and then resuspended in 1 mL of DMEM medium. The virus preparations were sterilized by filtration (0.45 μm pore size) and were frozen in portions (−80° C.). Individual virus preparations were standardized by determination of the reverse transcriptase activity, specifically on the basis of an already described test (Willey et al., 1988), using [32P]-TTP incorporation into an oligo(dT)-poly(A) template.
The tonsil tissue was washed in PBS, then cleaned of blood clots and cut into pieces measuring 1 to 2 mm^2 with the scalpel. Individual cells were obtained by mechanical pressing through a filter gauze. Following centrifugation of the isolated cells (5 minutes, 1200 rpm), the cells were counted, seeded into 96-well plates and incubated overnight at 37° C. and 5% CO2. Infection of the cells was achieved by addition of 10 ng of X4-trophic HIV stocks and simultaneous application of the corresponding inhibitor concentrations. On the following day, 50 μL of supernatant was withdrawn (“1 dpi”) and stored at −80° C. Thereupon the cells were centrifuged (5 minutes, 1200 rpm) and a further 50 μL of supernatant was withdrawn. Following resuspension of the cells in 100 μL of tonsil medium, this washing step was repeated two times. Tonsil medium with the corresponding inhibitor concentrations was added and then the cells were re-incubated at 37° C. and 5% CO2. On days 3, 6, 9 and 12, 150 μL of medium was withdrawn and stored at −80° C., and 150 μL of medium with the corresponding inhibitor concentrations was added. On day 15, only 150 μL of supernatant was removed and stored at −80° C., after which the cells were discarded.
The tonsil supernatants stored at −80° C. were assayed by determination of the reverse transcriptase activity, specifically on the basis of an already described test (Willey et al., 1988), using [32P]-TTP incorporation into an oligo(dT)-poly(A) template.

In assay [1] the test system is HeLaSS6 cells transfected with subgenomic HIV-1 expression vector pNLenv1. Briefly: Time kinetics of Gag processing and virus release, Western blot of cell and virus fractions. Format: cell-based. The conditions noted are these: 100 nM 17-AAG vs inhibitor-free medium. The procedure:
Time kinetics were studied for biochemical analysis of the influence of 17-AAG on the kinetics of Gag processing and virus release. The experimental details of cultivation, transfection, media exchange and time kinetics are reported in Example 4a/b. For this purpose there were used cultures of HeLaSS6 cells that had been transfected with pNLenv1 (Schubert et al., 1995). Following incubation in 17-AAG-containing medium (100 nM 17-AAG) or inhibitor-free medium, the kinetic studies were begun after distinct washing steps and aliquoting of the preparations. Aliquot cell cultures were taken at each time and separated into cell, virus and cell-culture supernatant fractions by centrifugation. The HIV proteins were separated by SDS PAGE, transferred onto PVDF membranes and then made visible on x-ray films by antibody-mediated chemiluminescence.
HeLa cells (ATCC CCL2) were cultivated in Dulbeccos' modified Eagle's medium (DMEM) with 10% fetal calf serum, 2 mM L-glutamine, 100 U/mL penicillin and 100 μg/mL streptomycin.
HeLa cells (ATCC CCL2) were transfected using a mixture of pNLΔenv and lipofectamine2000 in OPTI-MEM. A media exchange was undertaken after 8 hours of incubation at 37° C. and 5% CO2. […] The HIV-specific and cell-specific proteins were detected via specific antibodies (to Hsp70; Hsp90; p24; PR55; β-actin). […]

As for `CC(C)C[C@H](NC(=O)[C@H](Cc1ccccc1)NC(=O)c1cnccn1)B(O)O` [PS341], in the assay on X4-trophic HI viruses (single inhibitor at 1 nM), the “virus replication of X4-trophic HI viruses (RT data)” value (from here on “virus replication … (RT data)”) was “not clearly influenced” and the “X4-trophic HIV replication (RT data)” value is given as “did not exhibit any influence”.
For the molecule `C=CCNC1=C2C[C@@H](C)C[C@H](OC)[C@H](O)[C@@H](C)/C=C(\C)[C@H](OC(N)=O)[C@@H](OC)/C=C\C=C(/C)C(=O)NC(=CC1=O)C2=O` [17-AAG], in assay [1], the “Gag processing in the virus fraction” value is “reduced Gag processing” and the “Hsp70 expression in the cell fraction” value was “intensified Hsp70 expression”. Moreover, the “virus replication of X4-trophic HI viruses in the HLAC model” value in the assay with X4-trophic HI viruses (summary statement of Example 3, RT assays after 15 days) was “inhibits the virus replication”. Besides, in the assay with X4-trophic HI viruses (10 nM 17-AAG alone), the “virus replication … (RT data)” value is recorded as “not clearly influenced” and the “X4-trophic HIV replication (RT data)” value is “distinct reduction of virus replication”. Also, in the assay on X4-trophic HI viruses (single inhibitor at 1 nM), the “virus replication … (RT data)” value is recorded as “not clearly influenced” and the “X4-trophic HIV replication (RT data)” value is on record as “did not exhibit any influence”.
